Source: patent publication US12552800B2, “Compounds for diagnosis” (AC IMMUNE SA, priority 2020, dated 2026)
pKi: −log10 of the molar value.

Experiments:
[1] = biological target: T1, PD brain-derived a-syn aggregates (Homo sapiens, UniProt P37840); experiment: Micro-radiobinding competition assay against Example-1 [^3H-1] (Table 8); assay type: binding; details: competition over Example-1 [^3H-1]
T1 construct: from tissue; host or cells: human PD donor brain, sarkosyl-insoluble 100,000 x g pellet

[2] = biological target: T1, PD brain-derived a-syn aggregates; experiment: as above; assay type: binding; details: for Competition at 100 nM (%): 100 nM non-radiolabelled example compound vs Example-1 [^3H-1] ligand; for Competition at 100 nM (%) / Competition at 1 μM (%): human PD brain-derived a-syn aggregates; for Competition at 1 μM (%): 1 μM non-radiolabelled example compound vs Example-1 [^3H-1] ligand
Protocol: PD brain-derived a-syn aggregates were spotted onto microarray slides. The slides were incubated with the Example-1 [^3H-1] at 6 nM or 20 nM and the example compounds (non-radiolabelled) at 1 μM and 100 nM. In some cases, the non-radiolabelled example compounds were further assessed for a range of different concentrations, varying from 0.05 nM to 2 μM. After incubation, slides were washed and scanned by a real-time autoradiography system (BeaQuant, ai4R). Quantification of the signal was performed by using the Beamage image analysis software (ai4R). […] All measurements were performed with at least two technical replicates. For compounds tested in more than one experiment, the mean of the replicates or K; values in independent experiments is reported.
Results: Example compounds were assessed for their potency to compete with the binding of Example-1 [^3H-1] ligand to PD patient brain-derived a-syn aggregates. Results of the micro-radiobinding competition assay for the example compounds tested are shown in Table 8 as: % competition at 1 μM and 100 nM.

SMILES	pKi [1]	Competition at 100 nM (%) [2] [%]	Competition at 1 μM (%) [2] [%]	pKi ([2]; mean of Ki values in independent experiments using PD brain-derived homogenates from two different donors)
O=C1c2cn(-c3ccc(N4CCC[C@@H](F)C4)nc3)nc2CN1c1cccnc1 [Example 40]	7.31	50	77	–
O=C1c2cn(-c3ccc(N4CC[C@@H](F)C4)nc3)nc2CN1c1ccccn1 [Example 5]	7.59	68	98	–
COc1cncc(N2Cc3nn(-c4ccc(N5CC[C@H](F)C5)nc4)cc3C2=O)c1 [Example 98]	7.05	38	76	–
O=C1c2cn(-c3ccc(N4CC[C@H](F)C4)nc3)nc2CN1c1cn[nH]c1 [Example 181]	6.87	67	75	–
O=C1c2cn(-c3ccc(N4CCCC4)nc3)nc2CN1c1ccncc1F [Example 113]	7.40	75	91	–
Nc1ccc(N2Cc3nn(-c4ccc(N5CCCC5)nc4)cc3C2=O)cc1F [Example 50]	8.10	94	103	–
O=C1c2cn(-c3ccc(N4CC[C@@H](F)C4)nc3)nc2CN1c1cncnc1 [Example 14]	–	42	77	–
Cc1ccc(N2Cc3nn(-c4ccc(N5CC[C@H](F)C5)nc4)cc3C2=O)nc1 [Example 112]	–	85	105	–
Cc1ncccc1N1Cc2nn(-c3ccc(N4CC[C@@H](F)C4)nc3)cc2C1=O [Example 12]	–	–	25	–
O=C1c2cn(-c3ccc(F)cn3)nc2CN1c1cccnc1 [Example 138]	–	32	57	–
O=C1c2cn(-c3ccc(N4CC[C@H](F)C4)nc3)nc2CN1c1cccc(O)c1 [Example 178]	–	77	103	–
O=C1c2cn(-c3ccc(N4CC[C@@H](F)C4)nc3)nc2CN1c1cncs1 [Example 126]	–	75	83	–
COc1ccccc1N1Cc2nn(-c3ccc(N4CC[C@@H](F)C4)nc3)cc2C1=O [Example 62]	–	8	27	–
O=C1c2cn(-c3ccc(N4CC[C@H](F)C4)cn3)nc2CN1c1cccnc1 [Example 72]	–	45	79	–
CC(C)Oc1ccc(-n2cc3c(n2)CN(c2cncc(F)n2)C3=O)cn1 [Example 158]	–	19	54	–
Cc1ccc(N2Cc3nn(-c4ccc(N5CC[C@@H](F)C5)nc4)cc3C2=O)cc1 [Example 60]	–	70	71	–
N#Cc1ccnc(N2Cc3nn(-c4ccc(N5CC[C@@H](F)C5)nc4)cc3C2=O)c1 [Example 86]	–	64	–	–
O=C1c2cn(-c3ccc(N4CCCC4)nc3)nc2CN1c1cnn(CCF)c1 [Example 129]	–	25	74	–
O=C1c2cn(-c3ccc(N4CC[C@@H](F)C4)nc3)nc2CN1c1ccc(O)cc1 [Example 180]	–	77	96	–
O=C1c2cn(-c3ccc(N4CC[C@H](F)C4)nc3)nc2CN1c1ccc(O)cc1 [Example 179]	–	80	95	–
O=C1c2cn(-c3ccc(N4CC[C@H](F)C4)nc3)nc2CN1c1ccccc1F [Example 71]	–	18	51	–
Cn1ccc(-n2cc3c(n2)CN(c2cccc(F)n2)C3=O)n1 [Example 145]	–	46	76	–
O=C1c2cn(-c3ccc(N4CC[C@H](F)C4)nc3)nc2CN1c1ccnc(O)c1 [Example 172]	–	44	85	–
O=C1c2cn(-c3ccc(N4CCCC4)nc3)nc2CN1c1nccnc1F [Example 42]	–	57	89	–
Cn1cc(-n2cc3c(n2)CN(c2cccc(F)n2)C3=O)cn1 [Example 150]	–	37	46	–
N#Cc1cc(N2Cc3nn(-c4ccc(N5CC[C@H](F)C5)nc4)cc3C2=O)ccc1N [Example 22]	–	–	72	–
Cn1ccc(N2Cc3nn(-c4ccc(N5CC[C@@H](F)C5)nc4)cc3C2=O)n1 [Example 116]	–	71	97	–
O=C1c2cn(-c3ccc(N4CC[C@@H](F)C4)nc3)nc2CN1c1nccs1 [Example 134]	–	74	–	–

Second part, the compound after the results:

pKi [1]	Competition at 100 nM (%) [2] [%]	Competition at 1 μM (%) [2] [%]	pKi ([2]; mean of Ki values in independent experiments using PD brain-derived homogenates from two different donors)	SMILES
7.25	68	93	–	O=C1c2cn(-c3ccc(N4CC[C@@H](F)C4)nc3)nc2CN1c1ncccc1O [Example 167]
7.26	72	96	–	O=C1c2cn(-c3ccc(N4CC[C@@H](F)C4)nc3)nc2CN1c1cc(O)ccn1 [Example 166]
–	29	75	–	O=C1c2cn(-c3ccc(NC4CC(F)C4)nc3)nc2CN1c1ccccn1 (stereo not drawn) [Example 89]
–	27	54	–	Cc1c2c(nn1-c1ccc(N3CC[C@H](F)C3)nc1)CN(c1cccnc1)C2=O [Example 53]
–	16	48	–	O=C1c2cn(-c3ccc(N4CC[C@@H](F)C4)nc3)nc2CN1c1ccccc1F [Example 69]
–	79	96	–	O=C1c2cn(-c3ccc(N4CC[C@@H](F)C4)nc3)nc2CN1c1ccc(F)cc1 [Example 63]
–	61	93	–	O=C1c2cn(-c3ccc(N4CCCC4)nc3)nc2CN1c1ccnc(F)c1 [Example 41]
–	58	90	7.21	Cc1ccc(N2Cc3nn(-c4ccc(N5CC[C@@H](F)C5)nc4)cc3C2=O)cn1 [Example 10]
–	92	98	–	O=C1c2cn(-c3ccc(N4CCCC4)nc3)nc2CN1c1ccc(F)cn1 [Example 115]
–	12	51	–	CC(C)n1cc(N2Cc3nn(-c4ccc(N5CC[C@H](F)C5)nc4)cc3C2=O)cn1 [Example 119]
–	65	–	–	O=C1c2cn(-c3ccc(N4CC[C@H](F)C4)nc3)nc2CN1c1cccc(F)c1 [Example 70]
–	61	98	–	Cn1cc(N2Cc3nn(-c4ccc(N5CC(F)C5)nc4)cc3C2=O)cn1 [Example 124]
–	73	–	–	Cc1ccc(N2Cc3nn(-c4ccc(N5CC[C@H](F)C5)nc4)cc3C2=O)cc1 [Example 35]
–	84	–	–	Cc1ccnc(N2Cc3nn(-c4ccc(N5CC[C@H](F)C5)nc4)cc3C2=O)c1 [Example 82]
–	80	95	–	COc1ccc(N2Cc3nn(-c4ccc(N5CC[C@H](F)C5)nc4)cc3C2=O)cc1 [Example 30]
–	88	–	–	N#Cc1ccc(N2Cc3nn(-c4ccc(N5CC[C@@H](F)C5)nc4)cc3C2=O)cn1 [Example 57]
–	–	84	–	N#Cc1ccc(N2Cc3nn(-c4ccc(N5CC[C@H](F)C5)nc4)cc3C2=O)cc1N [Example 21]
